This is an account of results in ChEMBL document CHEMBL4842340, “Development of Cagrilintide, a Long-Acting Amylin Analogue” (J Med Chem, 2021).

Series [1] in a line: Solubility of the compound in bis-tris propane at pH 8 by UPLC analysis. In kind it is physicochemical. Particulars: bis-tris propane buffer.
Series [2] is filed under the species Homo sapiens. The series can be described thus: Ratio of EC50 for human calcitonin receptor expressed in BHK570 cells to EC50 for human AMY3R (CT+RAMP3) expressed in Hollex1 cells. The class given is cell-based.
In series [3] the test system is Rattus norvegicus. Put plainly: Reduction in food intake in Sprague-Dawley rat at 3 nmol/kg, sc administered as single dose measured upto 24 hrs relative to control. In kind it is functional. On the set-up: scale not given: the % may be the effect or the level left. The conditions noted are these: time hrs <=24.
Series [4] is described as follows: Solubility of the compound in bis-tris propane at pH 6 by UPLC analysis. In kind it is physicochemical. Particulars: bis-tris propane buffer.
The subject of series [5] is Rattus norvegicus. Put plainly: Reduction in food intake in Sprague-Dawley rat at 3 nmol/kg, sc administered as single dose measured after 24 to 48 hrs relative to control. The class given is functional. On the set-up: scale not given: the % may be the effect or the level left. Particulars: time 24-48 hrs.
Series [6] is described as follows: Solubility of the compound in bis-tris propane at pH 7.5 by UPLC analysis. The class given is physicochemical. Particulars: bis-tris propane buffer.
Series [7] is described as follows: Agonist activity at human AMY3R (CT+RAMP3) expressed in Hollex1 cells incubated for 3 hrs by luminescence assay. The class given is cell-based. The conditions noted are these: Hollex1, 3 h.
The nature of series [8]: Solubility of the compound in lactate at pH 4 by UPLC analysis. The class given is physicochemical. Particulars: lactate buffer.
Series [9] is described as follows: Agonist activity at human calcitonin receptor expressed in BHK570 cells assessed as increase in intracellular cAMP concentration incubated for 3 hrs in absence of albumin by CRE luciferase reporter gene assay. In kind it is cell-based. Particulars: BHK570, 3 h. (In a reporter assay the amount or activity of a reporter protein is the signal.)
The species named for series [10] is Rattus norvegicus. Put plainly: Ratio of EC50 for rat calcitonin receptor expressed in BHK-13 cells to EC50 for rat AMY3R (CT+RAMP3) expressed in tk-ts13 cells. In kind it is cell-based.
A short description of series [11]: Solubility of the compound in lactate at pH 5 by UPLC analysis. In kind it is physicochemical. Particulars: lactate buffer.
Series [12] is described as follows: Solubility of the compound in lactate at pH 3 by UPLC analysis. Particulars: lactate buffer. The class given is physicochemical.
Series [13] addresses Insulin (Homo sapiens) (UniProt P01308). The series can be described thus: Effect on insulin (unknown origin) amyloid fibril formation assessed as peptide recovery in glycyl-glycine buffer at pH 4 measured after 45 hrs by thioflavin-T fluorescence assay relative to control. Also on record: concentration or dose not given beside the values.
Series [14] is described as follows: Agonist activity at rat AMY3R (CT+RAMP3) expressed in tk-ts13 cells assessed as increase in intracellular cAMP level incuabted for 25 mins by CRE luciferase reporter gene assay. The conditions noted are these: tk-ts13, 25 min. In kind it is cell-based.
Series [15] can be described thus: Solubility of the compound in bis-tris propane at pH 6.5 by UPLC analysis. The conditions noted are these: bis-tris propane buffer. In kind it is physicochemical.
Series [16] in a line: Solubility of the compound in bis-tris propane at pH 7 by UPLC analysis. In kind it is physicochemical. The conditions noted are these: bis-tris propane buffer.
Series [17] can be described thus: Agonist activity at rat calcitonin receptor expressed in BHK-13 cells assessed as increase in intracellular cAMP concentration incubated for 25 mins by CRE luciferase reporter gene assay. In kind it is cell-based. Particulars: BHK-13, 25 min.
For series [18], the target named is Insulin (Homo sapiens) (UniProt P01308). Put plainly: Effect on insulin (unknown origin) amyloid fibril formation assessed as lag time in glycyl-glycine buffer at pH 4 measured after 45 hrs by thioflavin-T fluorescence assay.
Series [19] has the same target. Put plainly: Effect on insulin (unknown origin) amyloid fibril formation assessed as lag time in HEPES buffer at pH 7.5 measured after 45 hrs by thioflavin-T fluorescence assay.
Series [20] is filed under the species Homo sapiens. The series can be described thus: Ratio of IC50 for displacement of [125I]-calcitonin from human calcitonin receptor expressed in tk-ts 13 cells to IC50 for displacement of [125I]-amylin from human AMY3R (CTR+RAMP3) expressed in BHK-13 cells. In kind it is cell-based. For orientation: Displacement assays read how much labelled ligand stays bound in the presence of the test substance.

For series [21], the species on record is Rattus norvegicus. The series can be described thus: Ratio of IC50 for displacement of [125I]-calcitonin from rat calcitonin receptor expressed in tk-ts 13 cells to IC50 for displacement of [125I]-amylin from rat AMY3R (CTR+RAMP3) expressed in BHK-13 cells. The class given is cell-based.
The target in series [22] is Insulin (Homo sapiens) (UniProt P01308). Put plainly: Effect on insulin (unknown origin) amyloid fibril formation assessed as peptide recovery in HEPES buffer at pH 7.5 measured after 45 hrs by thioflavin-T fluorescence assay relative to control.
Series [23] is described as follows: Displacement of [125I]-amylin from human AMY3R (CTR+RAMP3) expressed in BHK-13 cells measured after 120 mins by scintillation proximity assay. The class given is cell-based.
Series [24] in a line: Displacement of [125I]-amylin from rat AMY3R (CTR+RAMP3) expressed in BHK-13 cells measured after 120 mins by scintillation proximity assay. In kind it is cell-based.
A short description of series [25]: Displacement of [125I]-calcitonin from human calcitonin receptor expressed in tk-ts 13 cells measured after 120 mins by scintillation proximity assay. The class given is cell-based. The conditions noted are these: tk-ts13.
Series [26] can be described thus: Displacement of [125I]-calcitonin from rat calcitonin receptor expressed in tk-ts 13 cells measured after 120 mins by scintillation proximity assay. In kind it is cell-based. Particulars: tk-ts13.

≈ marks a conversion by molar mass, not a printed value. *1 amine or outer side, *2 acyl side, *3 side chain or, on linkers, in order; H or OH if unused. Where a SMILES comes first, the peptide text is derived from it. Bridges are numbered along the chain shown (N, C = ends). The star is where a group is joined. C20 diacid = O=C(O)CCCCCCCCCCCCCCCCCCC(=O)*; γGlu = O=C(O)[C@H](CCC(=O)[*:2])N[*:1]

Insulin (Homo sapiens), sequence (P01308 whole entry): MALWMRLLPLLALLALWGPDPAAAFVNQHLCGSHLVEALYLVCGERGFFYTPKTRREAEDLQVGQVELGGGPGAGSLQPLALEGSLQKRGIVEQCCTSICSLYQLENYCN

For orientation: solubility means the dissolved amount per volume that the medium holds. Usually EC50 stands for the concentration giving half of the maximal effect. For `CC[C@H](C)[C@H](NC(=O)[C@@H]1CCCN1C(=O)CNC(=O)[C@H](Cc1ccccc1)NC(=O)[C@H](CC(N)=O)NC(=O)[C@H](CC(N)=O)NC(=O)[C@H](CO)NC(=O)[C@H](CO)NC(=O)[C@H](Cc1c[nH]cn1)NC(=O)[C@H](Cc1cnc[nH]1)NC(=O)[C@H](CC(C)C)NC(=O)[C@H](Cc1ccccc1)NC(=O)[C@H](CCC(=O)O)NC(=O)[C@H](C)NC(=O)[C@H](CC(C)C)NC(=O)[C@H](CCCNC(=N)N)NC(=O)[C@H](CCC(N)=O)NC(=O)[C@@H](NC(=O)[C@H](C)NC(=O)[C@@H]1CSSC[C@H](NC(=O)[C@H](CCCCN)NC(=O)CC[C@H](NC(=O)CC[C@H](NC(=O)CCCCCCCCCCCCCCCCCCC(=O)O)C(=O)O)C(=O)O)C(=O)N[C@@H](CC(N)=O)C(=O)N[C@@H]([C@@H](C)O)C(=O)N[C@@H](C)C(=O)N[C@@H]([C@@H](C)O)C(=O)N1)[C@@H](C)O)C(=O)N[C@@H](CC(C)C)C(=O)N1CCC[C@H]1C(=O)N1CCC[C@H]1C(=O)N[C@H](C(=O)N[C@@H](CC(N)=O)C(=O)N[C@H](C(=O)NCC(=O)N[C@@H](CO)C(=O)N[C@@H](Cc1cnc[nH]1)C(=O)N[C@H](C(=O)N[C@@H](Cc1ccc(O)cc1)C(N)=O)[C@@H](C)O)C(C)C)[C@@H](C)O` ({C20 diacid-γGlu-γGlu}-KCNTATCATQRLAEFLHHSSNNFGPILPPTNVGSHTY-NH2; disulfide 2-7), the solubility in [1], in [4], in series [6], in series [8], in series [11] and in series [12] was 200 µM (≈ 922 µg/mL) each time. Also, the solubility in [15] and in series [16] was 200 µM (≈ 922 µg/mL) each time. The Ratio EC50 came out at 1 in [2] and 8 in series [10]. In addition, the Activity in series [3] stood at 46%; in series [5], 21%; in series [13], 35%. For the same compound, the EC50 in series [7] amounted to 0.297 nM; in [9], 0.347 nM; in series [14], 0.623 nM; in [17] it was 4.97 nM. Moreover, the TIME in [18] came to 16 h; in [19] it was 4 h.
For orientation: IC50 means the concentration that gives 50% inhibition. Regarding `CC[C@H](C)[C@H](NC(=O)[C@@H]1CCCN1C(=O)CNC(=O)[C@H](Cc1ccccc1)NC(=O)[C@H](CC(N)=O)NC(=O)[C@H](CC(N)=O)NC(=O)[C@H](CO)NC(=O)[C@H](CO)NC(=O)[C@H](Cc1c[nH]cn1)NC(=O)[C@H](Cc1cnc[nH]1)NC(=O)[C@H](CC(C)C)NC(=O)[C@H](Cc1ccccc1)NC(=O)[C@H](CCC(=O)O)NC(=O)[C@H](C)NC(=O)[C@H](CC(C)C)NC(=O)[C@H](CCCNC(=N)N)NC(=O)[C@H](CCC(N)=O)NC(=O)[C@@H](NC(=O)[C@H](C)NC(=O)[C@@H]1CSSC[C@H](NC(=O)[C@H](CCCCN)NC(=O)CC[C@H](NC(=O)CCCCCCCCCCCCCCCCCCC(=O)O)C(=O)O)C(=O)N[C@@H](CC(N)=O)C(=O)N[C@@H]([C@@H](C)O)C(=O)N[C@@H](C)C(=O)N[C@@H]([C@@H](C)O)C(=O)N1)[C@@H](C)O)C(=O)N[C@@H](CC(C)C)C(=O)N1CCC[C@H]1C(=O)N1CCC[C@H]1C(=O)N[C@H](C(=O)N[C@@H](CC(N)=O)C(=O)N[C@H](C(=O)NCC(=O)N[C@@H](CO)C(=O)N[C@@H](CC(N)=O)C(=O)N[C@H](C(=O)N1CCC[C@H]1C(N)=O)[C@@H](C)O)C(C)C)[C@@H](C)O` ({C20 diacid-γGlu}-KCNTATCATQRLAEFLHHSSNNFGPILPPTNVGSNTP-NH2; disulfide 2-7), the solubility in [1], in [4], in [6], in series [8], in [11] and in series [12] was 200 µM (≈ 878 µg/mL) each time. Further, the solubility in series [15] and in series [16] was 200 µM (≈ 878 µg/mL) each time. In addition, in series [2], the Ratio EC50 was 1. The Activity amounted to 62% in series [3], 74% in series [5], 19% in [22] and 92% in [13]. Moreover, the Ratio IC50 in series [20] and in [21] was 1 in each case. Moreover, the IC50 in [23] is 0.186 nM; in [24] it was 0.027 nM; in [25], 0.115 nM; in series [26] it was 0.018 nM. The EC50 in series [7] was 0.061 nM; in series [9] it was 0.052 nM; in [14], 0.158 nM; in [17], 0.076 nM. Further, the results for the TIME in [18] and in series [19] were 45 h and 11 h, respectively.
As for `CC[C@H](C)[C@H](NC(=O)[C@@H]1CCCN1C(=O)CNC(=O)[C@H](Cc1ccccc1)NC(=O)[C@H](CO)NC(=O)[C@H](CO)NC(=O)[C@H](CO)NC(=O)[C@H](CO)NC(=O)[C@H](CCCNC(=N)N)NC(=O)[C@H](Cc1cnc[nH]1)NC(=O)[C@H](CC(C)C)NC(=O)[C@H](Cc1ccccc1)NC(=O)[C@H](CCC(=O)O)NC(=O)[C@H](C)NC(=O)[C@H](CC(C)C)NC(=O)[C@H](CCCNC(=N)N)NC(=O)[C@H](CCC(N)=O)NC(=O)[C@@H](NC(=O)[C@H](C)NC(=O)[C@@H]1CSSC[C@H](NC(=O)[C@H](Cc2cnc[nH]2)NC(=O)CC[C@H](NC(=O)CCCCCCCCCCCCCCCCCCC(=O)O)C(=O)O)C(=O)N[C@@H](CC(N)=O)C(=O)N[C@@H]([C@@H](C)O)C(=O)N[C@@H](C)C(=O)N[C@@H]([C@@H](C)O)C(=O)N1)[C@@H](C)O)C(=O)N[C@@H](CC(C)C)C(=O)N1CCC[C@H]1C(=O)N1CCC[C@H]1C(=O)N[C@H](C(=O)N[C@@H](CC(=O)O)C(=O)N[C@H](C(=O)NCC(=O)N[C@@H](CO)C(=O)N[C@@H](CC(=O)O)C(=O)N[C@H](C(=O)N[C@@H](Cc1ccc(O)cc1)C(N)=O)[C@@H](C)O)C(C)C)[C@@H](C)O` ({C20 diacid-γGlu}-HCNTATCATQRLAEFLHRSSSSFGPILPPTDVGSDTY-NH2; disulfide 2-7), the solubility in series [1] is 200 µM (≈ 886 µg/mL); in series [4] it was 200 µM (≈ 886 µg/mL); in [6], 200 µM (≈ 886 µg/mL); in series [11], 5 µM (≈ 22.2 µg/mL); in [12] it was 200 µM (≈ 886 µg/mL); in series [15], 200 µM (≈ 886 µg/mL). The compound also showed a solubility in [16] of 200 µM (≈ 886 µg/mL). The Ratio EC50 in series [2] was found to be 1; in series [10] it was 6. In addition, the Activity stood at 94% in [22] and 57% in series [13]. In addition, the EC50 in series [7] was 0.166 nM; in series [9], 0.18 nM; in series [14], 0.278 nM; in series [17], 1.58 nM. Moreover, the TIME in series [18] and in [19] was 45 h throughout.
